Where a SMILES comes first, the peptide text is derived from it.
System: SARS-CoV-2 M^pro precursors Nsp4-4F-M^pro-GST and 4F-M^pro-GST
Format: cell-based

Structure (SMILES) | AlphaLISA signal (precursor-mediated N-terminal processing)
CC(C)C[C@H](NC(=O)[C@H]1O[C@@H]1C(=O)O)C(=O)NCCCCN=C(N)N [E-64] | background levels
CC(NC(=O)[C@H](Cc1ccccc1)NC(=O)OCc1ccccc1)C(=O)CF (stereo partly drawn) [Z-FA-FMK] | no detectable impact
COC(=O)N[C@H](C(=O)N[C@@H](Cc1ccccc1)[C@@H](O)CN(Cc1ccc(-c2ccccn2)cc1)NC(=O)[C@@H](NC(=O)OC)C(C)(C)C)C(C)(C)C [atazanavir] | background levels
CC(C)(C)NC(=O)N[C@H](C(=O)N1C[C@H]2[C@@H]([C@H]1C(=O)NC(CC1CCC1)C(=O)C(N)=O)C2(C)C)C(C)(C)C (stereo partly drawn) [boceprevir, Boceprevir] | no detectable impact
CSCC[C@@H](C=O)NC(=O)[C@H](CC(C)C)NC(=O)[C@H](CC(C)C)NC(C)=O [calpain inhibitor II] (Ac-Leu-Leu-Met-aldehyde) | no detectable impact
Cc1cccc(C)c1OCC(=O)N[C@@H](Cc1ccccc1)[C@@H](O)C[C@H](Cc1ccccc1)NC(=O)[C@H](C(C)C)N1CCCNC1=O [lopinavir] | background levels
